{"source": "patent US7288273B1", "about": "“Gallotannins and ellagitannins as regulators of cytokine release” (The Penn State Research Foundation, priority 2000, dated 2007)", "key": {"[1]": {"test_system": "LPS induced TNF-α secretion from h-PBMC's", "test": "Inhibition of LPS induced TNF-α secretion from h-PBMC's", "format": "cell-based, human", "conditions": "for TNF-α secreted in the presence of LPS and 17c-20c: compound 10 μg/mL added after 45 minutes, h-PBMC's 3rd subject; for TNF-α secreted in the presence of LPS and 17c-20c / TNF-α secreted in the presence of LPS and 19c / 20c / TNF-α secreted in the presence of LPS and 18c-20c: ± SD; for TNF-α secreted in the presence of LPS and 19c / 20c: 8 h incubation; for TNF-α secreted in the presence of LPS and 19c / 20c / TNF-α secreted in the presence of LPS and 18c-20c: 4th subject", "method_in_brief": "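Human PBMCs stimulated with LPS (5 or 10 μg/mL), compounds added at varying concentrations 45 min after LPS or simultaneously; supernatants harvested after 8 h. Secreted TNF-α normalized as percent of maximum secretion with LPS alone.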"}, "[2]": {"test_system": "TNF-α secretion from h-PBMC's", "test": "TNF-α release from h-PBMC's, ELISA", "format": "cell-based, human", "conditions": "24 hours, ± SD", "method_in_brief": "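Human PBMCs from healthy donors (1×10^6 cells/well in RPMI) were incubated with compound added from HBSS stock for 24 h at 37 °C, 5% CO2. TNF-α in culture supernatants was measured by ELISA against standard curves, with LPS as positive control and untreated cells as negative; mean of triplicates.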"}, "[3]": {"conditions": "LPS 10 μg/mL, substrate added after 45 minutes, 8 hours"}, "[4]": {"conditions": "compound 0.6 μM added 45 minutes after LPS 1 μg/mL"}, "[5]": {"conditions": "compound 0.6 μM added 45 minutes after LPS 10 μg/mL, 8 hours"}}, "data": [{"smiles": "O=C(CCCCCC(=O)OC1O[C@H](COC(=O)c2cc(O)c(O)c(O)c2)[C@@H](OC(=O)c2cc(O)c(O)c(O)c2)[C@H](OC(=O)c2cc(O)c(O)c(O)c2)[C@H]1OC(=O)c1cc(O)c(O)c(O)c1)OC1O[C@H](COC(=O)c2cc(O)c(O)c(O)c2)[C@@H](OC(=O)c2cc(O)c(O)c(O)c2)[C@H](OC(=O)c2cc(O)c(O)c(O)c2)[C@H]1OC(=O)c1cc(O)c(O)c(O)c1", "note": "(mixture of isomers) [Compound 20c, 1,1′-O-2,2′,3,3′,4,4′,6,6′-Tetrakis(3,4,5-trihyroxybenzoyl)-β,β′-D,D′-glucopyranosylpimelate]", "values": [{"measurement": "TNF-α secreted in the presence of LPS and 17c-20c", "setting": "[1]; LPS 5 μg/mL, time 1 h", "value": "243.6 ± 52.8", "unit": "pg/mL"}, {"measurement": "TNF-α secreted in the presence of LPS and 17c-20c", "setting": "[1]; LPS 5 μg/mL, time 4 h", "value": "2370.1 ± 95.7", "unit": "pg/mL"}, {"measurement": "TNF-α secreted in the presence of LPS and 17c-20c", "setting": "[1]; LPS 5 μg/mL, time 8 h", "value": "2889.8 ± 383.2", "unit": "pg/mL"}, {"measurement": "TNF-α secreted in the presence of LPS and 17c-20c", "setting": "[1]; LPS 5 μg/mL, time 12 h", "value": "2313.2 ± 339.1", "unit": "pg/mL"}, {"measurement": "TNF-α secreted in the presence of LPS and 17c-20c", "setting": "[1]; LPS 5 μg/mL, time 16 h", "value": "2628.4 ± 571.0", "unit": "pg/mL"}, {"measurement": "TNF-α secreted in the presence of LPS and 17c-20c", "setting": "[1]; LPS 5 μg/mL, time 24 h", "value": "2356.4 ± 400.3", "unit": "pg/mL"}, {"measurement": "maximum inhibition of LPS induced TNF-α secretion", "setting": "[1]; LPS 5 μg/mL, 3rd subject", "value": 45, "unit": "%"}, {"measurement": "maximum inhibition of LPS induced TNF-α secretion", "setting": "[1]; [3]", "value": 45, "unit": "%"}, {"measurement": "TNF-α secreted in the presence of LPS and 19c / 20c", "setting": "[1]; [4]", "value": "109.1 ± 14.9", "unit": "% max. response"}, {"measurement": "TNF-α secreted in the presence of LPS and 18c-20c", "setting": "[1]; [5]", "value": "89.8 ± 9.2", "unit": "% max. response"}, {"measurement": "TNF-α secreted in the presence of LPS and 19c / 20c", "setting": "[1]; compound 1.8 μM added 45 minutes after LPS 1 μg/mL", "value": "110.6 ± 1.3", "unit": "% max. response"}, {"measurement": "TNF-α secreted in the presence of LPS and 18c-20c", "setting": "[1]; compound 2.9 μM added 45 minutes after LPS 10 μg/mL, 8 hours", "value": "65.6 ± 8.3", "unit": "% max. response"}, {"measurement": "TNF-α secreted in the presence of LPS and 19c / 20c", "setting": "[1]; compound 3.5 μM added 45 minutes after LPS 1 μg/mL", "value": "62.4 ± 10.2", "unit": "% max. response"}, {"measurement": "TNF-α secreted in the presence of LPS and 19c / 20c", "setting": "[1]; compound 5.9 μM added 45 minutes after LPS 1 μg/mL", "value": "69.5 ± 27.9", "unit": "% max. response"}, {"measurement": "TNF-α secreted in the presence of LPS and 18c-20c", "setting": "[1]; compound 5.9 μM added 45 minutes after LPS 10 μg/mL, 8 hours", "value": "67.1 ± 8.9", "unit": "% max. response"}, {"measurement": "TNF-α secreted in the presence of LPS and 18c-20c", "setting": "[1]; compound 11.7 μM added 45 minutes after LPS 10 μg/mL, 8 hours", "value": "63.3 ± 4.7", "unit": "% max. response"}, {"measurement": "TNF-α secreted in the presence of LPS and 19c / 20c", "setting": "[1]; compound 11.8 μM added 45 minutes after LPS 1 μg/mL", "value": "98.4 ± 12.1", "unit": "% max. response"}, {"measurement": "TNF-α secreted in the presence of LPS and 18c-20c", "setting": "[1]; compound 23.5 μM added 45 minutes after LPS 10 μg/mL, 8 hours", "value": "63.9 ± 13.9", "unit": "% max. response"}, {"measurement": "TNF-α secreted in the presence of 17c-21c", "setting": "[2]; compound 0.6 μM", "value": 0, "unit": "pg/mL"}, {"measurement": "TNF-α secreted in the presence of 17c-21c", "setting": "[2]; compound 2.8 μM", "value": 0, "unit": "pg/mL"}, {"measurement": "TNF-α secreted in the presence of 17c-21c", "setting": "[2]; compound 5.6 μM", "value": 0, "unit": "pg/mL"}, {"measurement": "TNF-α secreted in the presence of 17c-21c", "setting": "[2]; compound 11.2 μM", "value": 0, "unit": "pg/mL"}, {"measurement": "TNF-α secreted in the presence of 17c-21c", "setting": "[2]; compound 16.8 μM", "value": 0, "unit": "pg/mL"}, {"measurement": "TNF-α secreted in the presence of 17c-21c", "setting": "[2]; compound 22.3 μM", "value": 0, "unit": "pg/mL"}, {"measurement": "TNF-α secreted in the presence of 17c-21c", "setting": "[2]; compound 27.9 μM", "value": 0, "unit": "pg/mL"}]}, {"smiles": "O=C(OC[C@H]1O[C@@H](OC(=O)c2ccc(-c3ccc(C(=O)O[C@@H]4O[C@H](COC(=O)c5cc(O)c(O)c(O)c5)[C@@H](OC(=O)c5cc(O)c(O)c(O)c5)[C@H](OC(=O)c5cc(O)c(O)c(O)c5)[C@H]4OC(=O)c4cc(O)c(O)c(O)c4)cc3)cc2)[C@H](OC(=O)c2cc(O)c(O)c(O)c2)[C@@H](OC(=O)c2cc(O)c(O)c(O)c2)[C@@H]1OC(=O)c1cc(O)c(O)c(O)c1)c1cc(O)c(O)c(O)c1", "note": "[Compound 19c, 1,1′-O-2.2′,3,3′,4,4′,6,6′-Tetrakis(3,4,5-trihyroxybenzoyl)-β,β′-D,D′-glucopyranosylbiphenyl-4.4′-diester]", "values": [{"measurement": "TNF-α secreted in the presence of LPS and 17c-20c", "setting": "[1]; LPS 5 μg/mL, time 1 h", "value": "328.2 ± 61.5", "unit": "pg/mL"}, {"measurement": "TNF-α secreted in the presence of LPS and 17c-20c", "setting": "[1]; LPS 5 μg/mL, time 4 h", "value": "1880.0 ± 20.1", "unit": "pg/mL"}, {"measurement": "TNF-α secreted in the presence of LPS and 17c-20c", "setting": "[1]; LPS 5 μg/mL, time 8 h", "value": "1921.5 ± 399.8", "unit": "pg/mL"}, {"measurement": "TNF-α secreted in the presence of LPS and 17c-20c", "setting": "[1]; LPS 5 μg/mL, time 12 h", "value": "2229.3 ± 353.1", "unit": "pg/mL"}, {"measurement": "TNF-α secreted in the presence of LPS and 17c-20c", "setting": "[1]; LPS 5 μg/mL, time 16 h", "value": "2561.2 ± 718.8", "unit": "pg/mL"}, {"measurement": "TNF-α secreted in the presence of LPS and 17c-20c", "setting": "[1]; LPS 5 μg/mL, time 24 h", "value": "2146.9 ± 69.3", "unit": "pg/mL"}, {"measurement": "maximum inhibition of LPS induced TNF-α secretion", "setting": "[1]; [3]", "value": 25, "unit": "%"}, {"measurement": "TNF-α secreted in the presence of LPS and 19c / 20c", "setting": "[1]; [4]", "value": "85.1 ± 10.3", "unit": "% max. response"}, {"measurement": "TNF-α secreted in the presence of LPS and 18c-20c", "setting": "[1]; [5]", "value": "114.3 ± 11.9", "unit": "% max. response"}, {"measurement": "TNF-α secreted in the presence of LPS and 19c / 20c", "setting": "[1]; compound 1.7 μM added 45 minutes after LPS 1 μg/mL", "value": "78.3 ± 9.1", "unit": "% max. response"}, {"measurement": "TNF-α secreted in the presence of LPS and 18c-20c", "setting": "[1]; compound 2.8 μM added 45 minutes after LPS 10 μg/mL, 8 hours", "value": "83.5 ± 26.1", "unit": "% max. response"}, {"measurement": "TNF-α secreted in the presence of LPS and 19c / 20c", "setting": "[1]; compound 3.4 μM added 45 minutes after LPS 1 μg/mL", "value": "81.8 ± 15.9", "unit": "% max. response"}, {"measurement": "TNF-α secreted in the presence of LPS and 19c / 20c", "setting": "[1]; compound 5.6 μM added 45 minutes after LPS 1 μg/mL", "value": "57.5 ± 14.1", "unit": "% max. response"}, {"measurement": "TNF-α secreted in the presence of LPS and 18c-20c", "setting": "[1]; compound 5.6 μM added 45 minutes after LPS 10 μg/mL, 8 hours", "value": "79.4 ± 15.1", "unit": "% max. response"}, {"measurement": "TNF-α secreted in the presence of LPS and 19c / 20c", "setting": "[1]; compound 11.2 μM added 45 minutes after LPS 1 μg/mL", "value": "57.4 ± 7.3", "unit": "% max. response"}, {"measurement": "TNF-α secreted in the presence of LPS and 18c-20c", "setting": "[1]; compound 11.2 μM added 45 minutes after LPS 10 μg/mL, 8 hours", "value": "92.4 ± 21.4", "unit": "% max. response"}, {"measurement": "TNF-α secreted in the presence of LPS and 18c-20c", "setting": "[1]; compound 22.4 μM added 45 minutes after LPS 10 μg/mL, 8 hours", "value": "73.0 ± 12.6", "unit": "% max. response"}, {"measurement": "TNF-α secreted in the presence of 17c-21c", "setting": "[2]; compound 0.6 μM", "value": "73.4 ± 58.3", "unit": "pg/mL"}, {"measurement": "TNF-α secreted in the presence of 17c-21c", "setting": "[2]; compound 2.9 μM", "value": "50.9 ± 28.0", "unit": "pg/mL"}, {"measurement": "TNF-α secreted in the presence of 17c-21c", "setting": "[2]; compound 5.9 μM", "value": "8.0 ± 8.0", "unit": "pg/mL"}, {"measurement": "TNF-α secreted in the presence of 17c-21c", "setting": "[2]; compound 11.8 μM", "value": "9.5 ± 6.5", "unit": "pg/mL"}, {"measurement": "TNF-α secreted in the presence of 17c-21c", "setting": "[2]; compound 17.6 μM", "value": "24.5 ± 10.7", "unit": "pg/mL"}, {"measurement": "TNF-α secreted in the presence of 17c-21c", "setting": "[2]; compound 23.5 μM", "value": "67.6 ± 21.0", "unit": "pg/mL"}, {"measurement": "TNF-α secreted in the presence of 17c-21c", "setting": "[2]; compound 29.4 μM", "value": "117.8 ± 44.0", "unit": "pg/mL"}]}]}
